Assays:
[1] = tested on: ovarian cancer ID8 cell line abdominal transplanted tumor; assay: Mouse ovarian cancer abdominal transplanted tumor model (ID8); assay type: in vivo, C57/6 mouse; conditions: SMI0 30 mg/kg ig daily, 30-day modeling
Method: Experimental method: A female C57/6 mouse ovarian cancer abdominal transplanted tumor model was constructed with an ovarian cancer murine ID8 cell line at a cell concentration of 2.5×10^6. A model group and an SMI0 intervention group were set for the experiment. The intervention group was intragastrically administered with the SMI0 compound at 30 mg/kg every day from three days before modeling to the end of the 30-day modeling (model group, n=10 mice; and SMI0 compound (30 mg/kg) group, n=11 mice). At the end of the experiment, blood was collected from the orbit, a body weight was measured, then the mice each were sacrificed, and ovary tissues were collected. Ovary tissue specimens were subjected to HE staining, and then the ovary tissue lesion and tumorigenesis of mice in each group were observed.

[2] = tested on: U251 cells / M2 microglial cells; assay: U251 cells co-cultivated with M2 microglial cells; assay type: cell-based, human; conditions: SMI0 50 μmol/L vs M2 microglial cell co-cultivation group, P<0.001
Method: Experimental method: 10 1-2 d newborn C57BL/6 WT mice and 6 CYP2E1^−/− mice were taken, primary microglial cells and astrocytes were collected and inoculated into 6-well plates, and 24 h later, culture supernatants were taken and co-cultivated with glioma cells. Experimental groups: control group; M2 model group; high-concentration, medium-concentration, and low-concentration SMI0 (50 μmol/L, 12.5 μmol/L, and 3.1 μmol/L) groups; and CYP2E1 gene-knockout group. 24 h later, supernatants were discarded; and […] and IL-13 each were added at 20 ng/mL to induce the transformation of microglial cells into the M2 type in the M2 model group and the high-concentration, medium-concentration, and low-concentration SMI0 groups, and different concentrations of SMI0 (50 μmol/L, 12.5 μmol/L, and 3.1 μmol/L) were also added in the intervention groups. The proliferation of glioma cells was determined by a CCK8 method, and an apoptosis proportion was determined by an Annexin V-FITC-PI apoptosis staining kit.

[3] = tested on: DEN-induced rat liver damage; assay: DEN-induced rat liver damage model; assay type: in vivo, SD rat; conditions: plasma, vs model group
Method: Experimental method: An SD rat liver damage model was constructed through intermittent intraperitoneal injection of DEN. A model group was injected intraperitoneally with DEN at 50 mg/kg twice a week in the first 4 weeks and then once a week in the 5th to 8th weeks. An SMI0 intervention group, which was injected with DEN at the amount and the way the same as that in the model group, was divided into SMI0+DEN low-dose and high-dose groups and an SMI0 high-dose continuous administration group, where the SMI0+DEN low-dose and high-dose groups were intragastrically administered with the compound SMI0 at 30 mg/kg and 150 mg/kg 5 min before DEN administration each time, respectively; and the SMI0 high-dose continuous administration group was intragastrically administered with the compound SMI0 at 150 mg/kg every day from the 1st week to the 8th week. At the end of molding, blood was collected from the orbit, and plasma liver function indexes of rats were determined by an automatic biochemical analyzer (model group, n=10 rats; SMI0 compound low-dose group, n=21 rats; (150 mg/kg)^a, SMI0 compound+DEN high-dose group, n=28 rats; and (150 mg/kg)^b, SMI0 compound high-dose continuous administration group, n=24 rats].

CYP2E1 = molecular target: T1, CYP2E1 (Mus musculus, UniProt Q05421); assay: CYP2E1 activity (CZX metabolism by liver microsome) in LPS-induced mouse pulmonary fibrosis model; assay type: in vivo; conditions: liver microsome of SMI0 high-dose group vs model group, P<0.05
T1 construct: from tissue; host or cells: liver microsomes of treated model mice (calcium precipitation)
T1 sequence (Q05421 whole entry): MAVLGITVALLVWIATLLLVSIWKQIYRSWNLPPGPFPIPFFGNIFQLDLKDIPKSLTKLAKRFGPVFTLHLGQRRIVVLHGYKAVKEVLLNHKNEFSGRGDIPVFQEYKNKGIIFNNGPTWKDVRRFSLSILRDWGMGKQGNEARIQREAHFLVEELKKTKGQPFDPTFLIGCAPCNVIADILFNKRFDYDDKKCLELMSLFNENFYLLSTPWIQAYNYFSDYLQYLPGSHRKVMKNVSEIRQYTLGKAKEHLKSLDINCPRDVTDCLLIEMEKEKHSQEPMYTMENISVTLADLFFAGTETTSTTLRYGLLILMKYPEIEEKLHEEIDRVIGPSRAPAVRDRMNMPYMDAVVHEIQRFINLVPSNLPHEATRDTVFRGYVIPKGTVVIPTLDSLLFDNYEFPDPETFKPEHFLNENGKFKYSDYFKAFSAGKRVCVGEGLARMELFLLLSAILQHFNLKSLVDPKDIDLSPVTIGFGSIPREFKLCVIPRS
Method: Experimental method: A calcium precipitation method was used to prepare a mouse liver microsome, and a Braford method was used to determine a protein concentration in the microsome. An incubation system was prepared with 2×PBS, a CZX solution, and the liver microsome at a final concentration of 0.5 mg/mL, and then pre-incubated at 37° C. for 5 min; NADPH was added to initiate a reaction, and a resulting mixture was incubated at 37° C. for 30 min and then placed on ice to terminate the reaction; and ethyl acetate was added to extract 6-hydroxychlorzoxazone, a resulting mixture was vortexed and centrifuged, and a resulting upper organic phase was collected and blow-dried with nitrogen. A peak area of a CZX metabolite 6-hydroxychlorzoxazone was detected by HPLC under the following conditions: methanol:water=56:44, and detection wavelength: 287 nm. A concentration A C of the metabolite 6-hydroxychlorzoxazone was calculated through substitution into a standard curve; and a reaction rate of conversion of CZX into 6-hydroxychlorzoxazone was calculated according to V(pmol/min/mg)=(ΔC*1000)/(B*T) to evaluate an enzymatic activity of CYP2E1, where B represents a protein concentration of the microsome (mg/mL) and T represents an incubation time (min). A correlation between a CYP2E1 activity and a pulmonary fibrosis severity in mice was analyzed.

[4] = SMI0 intervention group, 8 weeks

## CC(=O)c1scnc1C [SMI0]
[1]
  inhibition rate for the ascites weight: 83.78%
[1]; vs model group
  ascites volume: significantly reduced
  body weight of mice: significantly reduced
[1]; as high as
  inhibition rate for tumor proliferation of the greater momentum: 58.70%
[2]
  proliferation of U251 cells: significantly inhibited
[3]; SMI0 intervention group (30, 150 mg/kg ig before DEN; 150 mg/kg daily), 8 weeks
  albumin (ALB2) level: significantly increased
[3]; [4]
  alanine aminotransferase (ALTL) level: significantly reduced
  alkaline phosphatase (ALP) (ALP2S) level: significantly reduced
  cholinesterase (CHE2) level: significantly increased
  direct bilirubin (BILD2) level: significantly reduced
  glutamyl transpeptidase (GGTI2) level: significantly reduced
  total bilirubin (BILT3) level: significantly reduced
[3]; SMI0 low-dose group (30 mg/kg ig)
  TP2 level: significantly increased
CYP2E1
  reaction rate V of CZX metabolism: significantly reduced

From US20230277508A1, “USE OF COMPOUND AS CYP2E1 INHIBITOR” (SHANGHAI LING XI BIOTECHNOLOGY DEVELOPMENT CO., LTD., priority 2020, published 2023)
